Source: patent US20040028646A1, “Particle formation” (priority 2002, published 2004)

System: lysozyme
Assay: Retention of original lysozyme activity after Nektar SCF processing
Assay type: biochemical
Settings: after Nektar SCF processing at 0° C., 100 bar

Experiment 8.1: unconjugated lysozyme subjected to Nektar SCF processing from 20 mg/ml aqueous solution
Retained original (pre-Nektar SCF) activity: 105%

Experiment 8.2: conjugate of the protein lysozyme with linear mPEG of 5 kDaltons
Retained original (pre-Nektar SCF) activity: 108%
